Holding throughout (format): cell-based
The subject of one assay is Phytophthora infestans. The experiment in a line: microbe, parasite or virus in culture. The note with it: for inhibition of growth at 1 ppm: read-out: Observed effect, 1 ppm.
The next assay relates to Septoria glycines. The assay can be described thus: Use Example M8: activity against Septoria glycines in the microtiter test (Septgl).
The subject of another assay is Colleotrichum truncatum. The assay can be described thus: Use Example M9: activity against Colleotrichum truncatum in the microtiter test (Colltr).
The subject of the next assay is Botrytis cinerea. The assay can be described thus: Use Example M2: activity against the gray mold pathogen Botrytis cinerea in the microtiter test (Botrci).
The mark [1] stands for this setting: Septoria glycines, read-out: Observed effect.
Setting [2] is: Septoria glycines, 0.25 ppm, read-out: Observed effect.
The mark [3] stands for this setting: Septoria glycines, 0.016 ppm, read-out: Observed effect.
[4] abbreviates: Septoria glycines, 1 ppm, read-out: Observed effect.

Where two headings read alike, the source gives them in different places.

As to `CC(Cc1ccc(C(C)(C)C)cc1)CN1C[C@@H](C)O[C@@H](C)C1` (stereo partly shown) [II-15, fenpropimorph], the inhibition of growth at 1 ppm with Phytophthora infestans (Phytophthora infestans) is 26%. For the same compound, the inhibition of growth at 0.004 ppm in the assay on Septoria glycines (setting [1]) turned out to be 1%. In addition, the inhibition of growth at […] with Septoria glycines (setting [2]) came out at 71%.
As to `CO/N=C(/C(=O)OC)c1ccccc1COc1ccccc1C` [II-8, kresoxim-methyl], the Observed effect with Colleotrichum truncatum (1 ppm) came out at 27%; in the assay with Colleotrichum truncatum (4 ppm), 37%.
In the assay with Botrytis cinerea (16 ppm), `CSc1ncnn1C[C@]1(c2ccc(F)cc2F)O[C@H]1c1ccccc1Cl` (relative stereo) [Example I-7, 1-[trans-3-(2-chlorophenyl)-2-(2,4-difluorophenyl)oxiranylmethyl]-5-methylsulfanyl-1H-[1,2,4]triazole] returned an Observed effect of 25%.
In the case of “2-[trans-2-(3,4-difluorophenyl)-3-(2-trifluoromethylphenyl)oxiranylmethyl]-2,4-dihydro-[1,2,4]triazole-3-thione [Example I-4]”, the Observed effect is on record as 26% with Colleotrichum truncatum (63 ppm), 31% in the assay on Phytophthora infestans (63 ppm), 5% in the assay with Septoria glycines (16 ppm) and 23% in the assay with Septoria glycines (63 ppm).
For the compound `Cc1ccccc1[C@@H]1O[C@]1(Cn1nc[nH]c1=S)c1ccc(F)c(F)c1` (relative stereo) [Example I-2, 2-[trans-2-(3,4-difluorophenyl)-3-o-tolyloxiranylmethyl]-2,4-dihydro-[1,2,4]triazole-3-thione], the figures for the Observed effect in the assay with Colleotrichum truncatum (63 ppm) and in the assay with Septoria glycines (63 ppm) were 38% and 40%, respectively.
`O=[N+]([O-])c1cc(C(F)(F)F)c(Cl)c([N+](=O)[O-])c1Nc1ncc(C(F)(F)F)cc1Cl` [II-40, fluazinam]: the inhibition of growth at 1 ppm in the assay on Phytophthora infestans (Phytophthora infestans) and in the assay with Septoria glycines (setting [4]) was 24% in each case. Also, the inhibition of growth at 0.016 ppm in the assay on Septoria glycines (setting [3]) stood at 7%.
For `CCNC(=O)NC(=O)/C(C#N)=N/OC` [cymoxanil], in the assay with Septoria glycines (Septoria glycines, 16 ppm, read-out: Observed effect), the inhibition of growth at 16 ppm came out at 27%.
In the assay on Septoria glycines (16 ppm), `COc1ccc(/C(=C\C(=O)N2CCOCC2)c2ccc(F)cc2)cc1OC` [flumorph] gave an Observed effect of 21%.
In the case of `OC(c1ccc(Cl)cc1)(c1cncnc1)c1ccccc1Cl` (stereo not shown) [fenarimol], the inhibition of growth at 0.016 ppm turned out to be 5% in the assay with Phytophthora infestans (Phytophthora infestans, read-out: Observed effect, 0.016 ppm) and 11% in the assay on Septoria glycines (setting [3]). Moreover, the inhibition of growth at 1 ppm in the assay on Phytophthora infestans (Phytophthora infestans) stood at 28%; in the assay with Septoria glycines (setting [4]) it was 39%.
For `CC(C)NC(=O)N1CC(=O)N(c2cc(Cl)cc(Cl)c2)C1=O` [iprodion], the Observed effect with Colleotrichum truncatum (1 ppm) was 9%.
For `Fc1ccc([C@]2(Cn3cncn3)O[C@H]2c2ccccc2Cl)cc1` (racemic) [II-1, epoxiconazole], in the assay on Septoria glycines (Septoria glycines, 0.063 ppm, read-out: Observed effect), the inhibition of growth at […] was 2%.
For `CC(C)NC(=O)N1CC(=O)N(c2cc(Cl)cc(Cl)c2)C1=O` [II-17, iprodione], in the assay on Septoria glycines (setting [4]), the inhibition of growth at 1 ppm was 0%.
On to `N#Cc1c[nH]cc1-c1cccc2c1OC(F)(F)O2` [II-38, fludioxonil], for which, in the assay on Phytophthora infestans (Phytophthora infestans), the inhibition of growth at 1 ppm was determined as 27%.
As to `CO/C=C(/C(=O)OC)c1ccccc1Oc1cc(Oc2ccccc2C#N)ncn1` [II-49, azoxystrobin], the Observed effect in the assay on Septoria glycines (0.016 ppm) stood at 20%.
`CSc1ncnn1C[C@]1(c2ccc(F)c(F)c2)O[C@H]1c1ccccc1Cl` (relative stereo) [Example I-5, 1-[trans-3-(2-chlorophenyl)-2-(3,4-difluorophenyl)oxiranylmethyl]-5-methylsulfanyl-1H-[1,2,4]triazole]: in the assay with Botrytis cinerea (16 ppm), the Observed effect is given as 9%.
On to `CC1(C)CCC(Cc2ccc(Cl)cc2)C1(O)Cn1cncn1` (stereo not shown) [II-2, metconazole], for which, in the assay with Septoria glycines (setting [2]), the inhibition of growth at […] turned out to be 19%.
The compound `N#Cc1sc2c(=O)c3ccccc3c(=O)c=2sc1C#N` [II-47, dithianon] displayed an Observed effect in the assay with Colleotrichum truncatum (0.016 ppm) of 3%. In the assay on Septoria glycines (setting [1]), the inhibition of growth at 0.004 ppm was 3%. The inhibition of growth at 0.016 ppm in the assay with Septoria glycines (setting [3]) came to 37%.
In the assay with Septoria glycines (1 ppm), `Cc1ccc(C(C)NC(=O)[C@@H](NC(=O)OC(C)C)C(C)C)cc1` (stereo partly shown) [II-35, iprovalicarb] yielded an Observed effect of 3%.
In the assay with Botrytis cinerea (4 ppm), “1-[trans-2-(2,4-difluorophenyl)-3-(2-fluorophenyl)oxiranylmethyl]-5-methylsulfanyl-1H-[1,2,4]triazole [Example I-6]” showed an Observed effect of 9%.
`COCC(=O)N(c1c(C)cccc1C)C(C)C(=O)OC` (stereo not shown) [II-14, metalaxyl]: the inhibition of growth at 4 ppm in the assay with Septoria glycines (Septoria glycines, 4 ppm, read-out: Observed effect) amounted to 18%.

(Values after patent publication US20120088661A1, “FUNGICIDAL MIXTURES” (BASF SE, priority 2009, published 2012).)
